Measured values from patent publication US20200404916A1, “METHOD OF REDUCING CROP DAMAGE” (BAYER AKTIENGESELLSCHAFT, priority 2018, published 2020).

Assays:
winter wheat, TRZAW [1] = test: Pre-emergence greenhouse pot test, visual scoring of crop damage on winter wheat; format: in vivo
Protocol: (§1) For the safener seed treatment, sufficient seeds were weighed into screw top glass bottles approximately twice the volume of the seeds.
(§2) The safener (mefenpyr-diethyl, formulated as suspension concentrate (SC)) was weighed out so that the required rates (g a.i./kg seed) would be obtained, dissolved in water (1 ml water per 10 g of seeds), and added to the seeds to produce a slurry.
(§3) The bottles were capped and then placed in an overhead shaker (set at medium speed for up to 1 hour) so that the seeds were evenly coated with the slurry. The bottles were uncapped and the seeds were sown as described above.
(§4) For the seed treatment process, the blind formulation (the SC formulation without the safener mefenpyr-diethyl) was used as seed treatment as described above.
The compounds were sprayed to the soil surface as an aqueous suspension at an equivalent water application rate of 300 l/ha.
(§5) The combination of herbicide and safener was applied as a tank mix.
(§6) After application, the test plants were kept in the greenhouse under good growth conditions.
(§7) Values in the table below are mean values from at least 3 replicates.

winter wheat, TRZAW [2] = test: Post-emergence greenhouse pot test, visual scoring of crop damage on winter wheat; format: in vivo
From the text: Post-emergence application was done when the plants had reached growth stage BBCH11 (BBCH is the international coding system for the growth stage of crops and weeds).
The safener (mefenpyr-diethyl) was formulated as wettable powder (WP).
The compounds were sprayed onto the green parts of the plants as an aqueous suspension at an equivalent water application rate of 300 l/ha.
as §5, §6, §7, §1, §2, §3, §4
Post-emergence application of the herbicide was done when the plants had reached growth stage BBCH11.
Post-emergence application was done when the plants had reached growth stage BBCH11.

Diflufenican [Herbicide post-em.]
% crop damage (winter wheat, TRZAW [1]; herbicide 200 g/ha pre-emergence, no safener, 14 days after application, mean of at least 3 replicates): 25% | % crop damage (winter wheat, TRZAW [2]; herbicide 200 g/ha post-emergence (BBCH11), no safener, 14 days after application, mean of at least 3 replicates): 20%

CCOC(=O)C1=NN(c2ccc(Cl)cc2Cl)C(C)(C(=O)OCC)C1 (stereo not drawn) [Safener in tank mix, ethyl 1-(2,4-dichlorophenyl)-5-(ethoxycarbonyl)-5-methyl-2-pyrazoline-3-carboxylate]
% crop damage (winter wheat, TRZAW [1]; safener 200 g/ha in tank mix alone, pre-emergence, no herbicide, 14 days after application): 5% | % crop damage (winter wheat, TRZAW [1]; safener seed treatment 0.5 g/kg alone, no herbicide, pre-emergence test series): 5% | % crop damage (winter wheat, TRZAW [2]; safener 200 g/ha in tank mix alone, post-emergence (BBCH11), no herbicide, 14 days after application): 5% | % crop damage (winter wheat, TRZAW [2]; safener seed treatment 0.5 g/kg alone, no herbicide, post-emergence test series): 0%
